Results on 17 compounds are retold here after patent publication EP4763839A1 (Pamplona Therapeutics (Shenzhen) Co., Ltd., priority 2023, dated 2025).

Structures can show the parent of a compound that is named as a salt. Where two headings read alike, the source gives them in different places. Some results are limits rather than exact numbers.

This assay deals with T1, IRAK4 (Homo sapiens, UniProt Q9NWZ3).
T1 sequence (Q9NWZ3 1-460): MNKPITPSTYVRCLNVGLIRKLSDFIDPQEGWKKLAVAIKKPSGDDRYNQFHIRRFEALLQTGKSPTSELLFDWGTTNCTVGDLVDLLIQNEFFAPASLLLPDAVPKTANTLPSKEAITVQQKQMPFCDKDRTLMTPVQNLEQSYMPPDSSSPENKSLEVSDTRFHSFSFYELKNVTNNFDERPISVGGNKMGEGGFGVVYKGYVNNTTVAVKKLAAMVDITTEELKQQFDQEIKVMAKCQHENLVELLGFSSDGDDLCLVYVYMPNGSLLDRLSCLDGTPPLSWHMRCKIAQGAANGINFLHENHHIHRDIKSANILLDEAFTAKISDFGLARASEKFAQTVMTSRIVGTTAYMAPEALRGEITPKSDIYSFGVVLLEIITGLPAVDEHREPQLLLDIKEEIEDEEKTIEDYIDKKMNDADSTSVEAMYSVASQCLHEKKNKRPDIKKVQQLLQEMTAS
Nature of the assay: Degradation of IRAK4 in THP1 cells, Western blot. It counts as cell-based. Further details: Degradation of IRAK4 in THP1 by compound; host or cells: THP-1. How it is done: After 24 hours of incubation, the cells were collected into 1.5 mL centrifuge tubes and centrifuged at 1,000 rpm for 5 minutes. […] The supernatants were collected, and the IRAK4 protein levels were respectively detected by Western blot (WB). The total protein concentration in the cell lysate supernatant was determined using a BCA protein quantification kit (NCM). Based on the total protein concentration detected by BCA, the samples were adjusted to 2 μg/μL using cell lysis buffer and 5×SDS-PAGE protein loading buffer (Beyotime), heated at 95°C for 5 minutes in a metal bath, and then placed on ice for an ice bath for 5 minutes before being used as the loading samples for Western blot analysis. Protein electrophoresis was performed using a 10% SDS-PAGE gel with a loading volume of 20 μL (total protein 40 μg) and Tris-SDS electrophoresis at a constant voltage of 80 V. After electrophoresis, the proteins on the gel were transferred to a 0.2 μm PVDF membrane (Immobilon) using a semi-dry transfer method at 0.5 A and 20 V for 60 minutes. After transfer, the membrane was placed in 5% skimmed milk and incubated at rt for 2 hours. After blocking, the PVDF membrane was incubated with primary antibody against IRAK4 (Abcam) at 4°C overnight. […] The color development and protein band imaging were performed using a chemiluminescence imaging system ([…] Technology Co., Ltd.). The protein bands were analyzed for grayscale values using Image J analysis software. The corrected grayscale values for each sample were calculated and then compared with those of the control group treated with DMSO alone to calculate the degradation rate.
A general note: A western blot detects proteins with antibodies after separation by electrophoresis.

The mark [1] stands for this setting: THP-1 cells, 24 hours of incubation, IRAK4 protein by Western blot, read-out: DC50.
[2] abbreviates: maximum degradation rate, THP-1 cells, 24 hours of incubation, read-out: Dmax.

The DC50 is the concentration giving 50% degradation. In general, Dmax refers to the largest share of the target that was removed. As for `Cn1c(=O)n(C2CCC(=O)NC2=O)c2cccc(N3CCC4(CC3)CN(CCc3ccc(-n5cc(NC(=O)c6cccc(C(F)(F)F)n6)c(C(N)=O)n5)cc3)C4)c21` (stereo not shown) [Compound A316, N-(3-carbamoyl-1-(4-(2-(7-(1-(2,6-dioxopiperidin-3-yl)-3-methyl-2-oxo-2,3-dihydro-1H-benzo[d]imidazol-4-yl)-2,7-diazaspiro[3.5]nonan-2-yl)ethyl)phenyl)-1H-pyrazol-4-yl)-6-(trifluoromethyl)picolinamide], the DC50 under setting [1] is less than 100 nM. In addition, the Dmax under setting [2] is greater than 60%.

Consider `Cn1c(=O)n(C2CCC(=O)NC2=O)c2cccc(N3CCC(CCN4CCN(c5ccc(-n6cc(NC(=O)c7cccc(C(F)(F)F)n7)c(C(N)=O)n6)cc5)CC4)C(F)(F)C3)c21` (stereo not shown) [Compound A300], for which the DC50 is less than 100 nM. Also, the Dmax (THP-1) is greater than 60%.

Regarding `Cn1c(=O)n(C2CCC(=O)NC2=O)c2cccc(NCCN3CC4CN(C(=O)c5ccc(-n6cc(NC(=O)c7cccc(-c8ccn[nH]8)n7)c(S(N)(=O)=O)n6)cc5)CC4C3)c21` (stereo not shown) [Compound A339], the DC50 under setting [1] was less than 100 nM. For the same compound, under setting [2], the Dmax was greater than 60%.

Take `NC(=O)c1nn(-c2ccc(N3CCN(C4CCN(c5ccc(C(=O)NC6CCC(=O)NC6=O)cn5)CC4)CC3)cc2)cc1NC(=O)c1cccc(C(F)(F)F)n1` (stereo not shown) [Compound A433, N-(3-Carbamoyl-1-(4-(4-(1-(5-((2,6-dioxopiperidin-3-yl)carbamoyl)pyridin-2-yl)piperidin-4-yl)piperazin-1-yl)phenyl)-1H-pyrazol-4-yl)-6-(trifluoromethyl)picolinamide]: the DC50 under setting [1] was 100 to 1000 nM. Besides, the Dmax under setting [2] was in the range of 40 to 60%.

In the case of `Cn1c(=O)n(C2CCC(=O)NC2=O)c2cccc(N3CCC4(CC3)CC(NC(=O)c3ccc(-n5cc(NC(=O)c6cccc(C(F)(F)F)n6)c(C(N)=O)n5)cc3)C4)c21` (stereo not shown) [Compound A320], under setting [1], the DC50 was less than 100 nM. Besides, under setting [2], the Dmax was greater than 60%.

`N#Cc1ccc(C(=O)Nc2cn(-c3ccc(N4CCN(CC5CCN(c6ccc(NC7CCC(=O)NC7=O)cc6F)CC5)CC4)cc3)nc2C(N)=O)nc1` (stereo not shown) [Compound A353, N-(3-Carbamoyl-1-(4-(4-((1-(4-((2,6-dioxopiperidin-3-yl)amino)-2-fluorophenyl)piperidin-4-yl)methyl)piperazin-1-yl)phenyl)-1H-pyrazol-4-yl)-5-cyanopicolinamide]: the DC50 under setting [1] is greater than 1000 nM. Moreover, the Dmax under setting [2] was less than 40%.

With `CC(C)(O)c1nn(-c2ccc(N3CCN(CC4CCN(c5ccc(NC6CCC(=O)NC6=O)cc5F)CC4)CC3)cc2)cc1NC(=O)c1cncc(C#N)c1` (stereo not shown) [Compound A385, 5-Cyano-N-(1-(4-(4-((1-(4-((2,6-dioxopiperidin-3-yl)amino)-2-fluorophenyl)piperidin-4-yl)methyl)piperazin-1-yl)phenyl)-3-(2-hydroxypropan-2-yl)-1H-pyrazol-4-yl)nicotinamide], under setting [1], the DC50 is greater than 1000 nM. The greatest degradation seen (Dmax) under setting [2] is less than 40%.

As to `NC(=O)c1nn(-c2ccc(N3CCN(C4CCN(c5ccc(OC6CCC(=O)NC6=O)cc5F)CC4)CC3)cc2)cc1NC(=O)c1cccc(C(F)(F)F)n1` (stereo not shown) [Compound A430, N-(3-Carbamoyl-1-(4-(4-(1-(4-((2,6-dioxopiperidin-3-yl)oxy)-2-fluorophenyl)piperidin-4-yl)piperazin-1-yl)phenyl)-1H-pyrazol-4-yl)-6-(trifluoromethyl)picolinamide], the DC50 under setting [1] was less than 100 nM. Further, the Dmax under setting [2] is greater than 60%.

`Cn1c(=O)n(C2CCC(=O)NC2=O)c2cccc(N3CCC(CN4CCN(c5ccc(-n6cc(NC(=O)c7cccc(C(F)(F)F)n7)c(C(=O)NC7CC7)n6)cc5)CC4)CC3)c21` (stereo not shown) [Compound A369, N-{3-[(cyclopropylamino)carbonyl]-1-{4-[4-({1-[1-(2,6-dioxopiperidin-3-yl)-3-methyl-2-oxobenzo[d]imidazol-4-yl]piperidin-4-yl}methyl)piperazin-1-yl]phenyl}pyrazol-4-yl}-6-(trifluoromethyl)pyridine-2-carboxamide formate]: the DC50 under setting [1] was less than 100 nM. Further, the Dmax under setting [2] is greater than 60%.

For `NC(=O)c1nn(-c2ccc(N3CCN(C(=O)C4CC5(CCN(c6ccc(N7CCC(=O)NC7=O)cc6)CC5)C4)CC3)cc2)cc1NC(=O)c1cccc(C(F)(F)F)n1` [Compound A394, N-(3-Carbamoyl-1-(4-(4-(7-(4-(2,4-dioxotetrahydropyrimidin-1(2H)-yl)phenyl)-7-azaspiro[3.5]nonane-2-carbonyl)piperazin-1-yl)phenyl)-1H-pyrazol-4-yl)-6-(trifluoromethyl)picolinamide], the DC50 under setting [1] was 100 to 1000 nM. The Dmax under setting [2] fell in the range of 40 to 60%.

In the case of `CC(C)(O)c1nn(-c2ccc(N3CCN(CC4CCN(c5ccc(NC6CCC(=O)NC6=O)cc5F)CC4)CC3)cc2)cc1NC(=O)c1cccc(C(F)(F)F)n1` (stereo not shown) [Compound A434, N-(1-(4-(4-((1-(4-((2,6-Dioxopiperidin-3-yl)amino)-2-fluorophenyl)piperidin-4-yl)methyl)piperazin-1-yl)phenyl)-3-(2-hydroxypropan-2-yl)-1H-pyrazol-4-yl)-6-(trifluoromethyl)picolinamide], the DC50 under setting [1] is less than 100 nM. For the same compound, the Dmax under setting [2] is greater than 60%.

In the case of `Cn1c(=O)n(C2CCC(=O)NC2=O)c2cccc(C#CCOC3CCN(C(=O)c4ccc(-n5cc(NC(=O)c6cccc(-c7ccn[nH]7)n6)c(S(N)(=O)=O)n5)cc4)CC3)c21` (stereo not shown) [Compound A335, N-(1-(4-(4-((3-(1-(2,6-Dioxopiperidin-3-yl)-3-methyl-2-oxo-2,3-dihydro-1H-benzo[d]imidazol-4-yl)prop-2-yn-1-yl)oxy)piperidine-1-carbonyl)phenyl)-3-sulfamoyl-1H-pyrazol-4-yl)-6-(1H-pyrazol-5-yl)picolinamide], under setting [1], the DC50 is less than 100 nM. Moreover, the Dmax under setting [2] was greater than 60%.

`Cn1c(=O)n(C2CCC(=O)NC2=O)c2cccc(N3CCN(C(=O)C4CCN(Cc5ccc(-n6cc(NC(=O)c7cccc(-c8ccn[nH]8)n7)c(S(N)(=O)=O)n6)cc5)CC4)CC3)c21` (stereo not shown) [Compound A332, N-(1-(4-((4-(4-(1-(2,6-Dioxopiperidin-3-yl)-3-methyl-2-oxo-2,3-dihydro-1H-benzo[d]imidazol-4-yl)piperazine-1-carbonyl)piperidin-1-yl)methyl)phenyl)-3-sulfamoyl-1H-pyrazol-4-yl)-6-(1H-pyrazol-5-yl)picolinamide]: the DC50 under setting [1] is less than 100 nM. Further, the Dmax under setting [2] is greater than 60%.

Consider `CN(Cc1ccc(-n2cc(NC(=O)c3cccc(C(F)(F)F)n3)c(C(N)=O)n2)cc1)C1CC2(CCN(c3cccc4c3n(C)c(=O)n4C3CCC(=O)NC3)CC2)C1` (stereo not shown) [Compound A315], for which the DC50 under setting [1] was 100 to 1000 nM. Further, the Dmax entry (maximum degradation rate, THP-1 cells, 24 hours of incubation) is listed as “A (A represents Dmax > 60%)”.

Consider `NC(=O)c1nn(C23CC(N4CCN(C5CCN(c6ccc(NC7CCC(=O)NC7=O)cc6F)CC5)CC4)(C2)C3)cc1NC(=O)c1cccc(C(F)(F)F)n1` (stereo not shown) [Compound A451, N-(3-Carbamoyl-1-(3-(4-(1-(4-((2,6-Dioxopiperidin-3-yl)amino)-2-fluorophenyl)piperidin-4-yl)piperazin-1-yl)bicyclo[1.1.1]pentan-1-yl)-1H-pyrazol-4-yl)-6-(trifluoromethyl)picolinamide], for which the DC50 under setting [1] was less than 100 nM. Moreover, under setting [2], the Dmax was greater than 60%.

Take `COc1ccc(C(=O)N2CCC(CN3CCN(C(=O)c4ccc(-n5cc(NC(=O)c6cccc(C(F)(F)F)n6)c(C(N)=O)n5)cc4)CC3)C2)cc1N1CCC(=O)NC1=O` (stereo not shown) [Compound A313, N-(3-carbamoyl-1-(4-((1-(3-(2,4-dioxotetrahydropyrimidin-1(2H)yl)-4-methoxybenzoyl)pyrrolidin-3-yl)methyl)piperazine-1-carbonyl)phenyl)-1H-pyrazol-4-yl)-6-(trifluoromethyl)picolinamide trifluoroacetate]: the DC50 under setting [1] fell in the range of 100 to 1000 nM. Also, the Dmax under setting [2] was greater than 60%.

On to `NC(=O)c1nn(-c2ccc(N3CCN(C(=O)C4CCN(c5ccc(OC6CCC(=O)NC6=O)cn5)CC4)CC3)cc2)cc1NC(=O)c1cccc(C(F)(F)F)n1` (stereo not shown) [Compound A415, N-(3-Carbamoyl-1-(4-(4-(1-(5-((2,6-dioxopiperidin-3-yl)oxy)pyridin-2-yl)piperidine-4-carbonyl)piperazin-1-yl)phenyl)-1H-pyrazol-4-yl)-6-(trifluoromethyl)picolinamide], for which, under setting [1], the DC50 is less than 100 nM. The Dmax under setting [2] was greater than 60%.
